Data as given in ChEMBL document CHEMBL1201862, “PubChem BioAssay data set” (2004).
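How tested: cells in 96-well plates exposed to compound for 48 hours at five concentrations. GI50: concentration for 50% inhibition of growth.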 Activity calls are given as the source filed them. Rule as the data show it: active = GI50 up to about 1.1 µM and inactive = higher.

Experiments:
Test in all cases: NCI anticancer screen, dose series, 48 h
[1] = test system: NCI/ADR-RES
[2] = test system: M19-MEL
[3] = test system: MOLT-4
[4] = test system: SK-MEL-28
[5] = test system: HCC 2998
[6] = test system: CAKI-1
[7] = test system: IGROV-1
[8] = test system: KM-20L2
[9] = test system: CCRF-CEM
[10] = test system: HL-60
[11] = test system: K562
[12] = test system: COLO 205
[13] = test system: MCF7
[14] = test system: A549
[15] = test system: SNB-19
[16] = test system: NCI-H226
[17] = test system: OVCAR-4
[18] = test system: SK-OV-3
[19] = test system: HCT-15
[20] = test system: OVCAR-5
[21] = test system: KM12
[22] = test system: RPMI-8226
[23] = test system: DLD-1
[24] = test system: UACC-257
[25] = test system: NCI-H460
[26] = test system: EKVX
[27] = test system: NCI-H23
[28] = test system: HT-29
[29] = test system: SNB-78
[30] = test system: SW-620
[31] = test system: HOP-18
[32] = test system: Malme-3M
[33] = test system: DMS-114
[34] = test system: OVCAR-3
[35] = test system: SF-539
[36] = test system: NCI-H522
[37] = test system: OVCAR-8
[38] = test system: A498
[39] = test system: SK-MEL-5
[40] = test system: SK-MEL-2
[41] = test system: DMS-273
[42] = test system: SNB-75
[43] = test system: SF-295
[44] = test system: HCT-116
[45] = test system: UACC-62
[46] = test system: UO-31
[47] = test system: U-251
[48] = test system: XF498
[49] = test system: SN12C
[50] = test system: HOP-62
[51] = test system: HOP-92
[52] = test system: SF-268
[53] = test system: RXF 393
[54] = test system: LOX IMVI
[55] = test system: 786-0
[56] = test system: SR
[57] = test system: TK-10
[58] = test system: ACHN

Measured: GI50

COc1cccc2c1C(=O)c1c(O)c3c(c(O)c1C2=O)CC(O)(C(C)=O)CC3O (configuration not stated)
inactive: [1] 5.68 µM | [2] 5.79 µM | [3] 1.98 µM | [4] 12.7 µM | [5] 7.24 µM | [6] 4.61 µM | [7] 3.44 µM | [8] 6.85 µM | [9] 1.88 µM | [10] 3.6 µM | [11] 4.34 µM | [12] 3.02 µM | [14] 6.55 µM | [15] 6.03 µM | [16] 5.56 µM | [17] 6.34 µM | [18] 11.5 µM | [20] 10.5 µM | [21] 6.17 µM | [22] 2.18 µM | [23] 6.85 µM | [24] 10.6 µM | [25] 1.56 µM | [26] 4.9 µM | [27] 4.88 µM | [28] 6.04 µM | [29] 9.18 µM | [30] 2.33 µM | [31] 22.6 µM | [32] 4.56 µM | [33] 6.97 µM | [34] 7.8 µM | [35] 4.74 µM | [37] 2.84 µM | [39] 2.16 µM | [40] 8.07 µM | [41] 2.3 µM | [42] 9.68 µM | [43] 5.73 µM | [44] 2.41 µM | [45] 5.58 µM | [46] 9.57 µM | [47] 4.03 µM | [49] 3.8 µM | [50] 2.14 µM | [51] 7.11 µM | [52] 4.23 µM | [53] 5.98 µM | [54] 1.63 µM
active: [13] 1.01 µM | [36] 1.03 µM | [38] 1 µM | [48] 0.537 µM
9.23 µM: [19]

CCC1=NC(CO)[C@H](c2ccccc2)O1 (some centres not stated)
inactive: [2] > 100 µM | [55] > 100 µM | [4] > 100 µM | [56] > 100 µM | [6] > 100 µM | [7] > 100 µM | [8] > 100 µM | [11] > 100 µM | [12] > 100 µM | [14] > 100 µM | [15] > 100 µM | [17] > 100 µM | [20] > 100 µM | [21] > 100 µM | [22] > 100 µM | [23] > 100 µM | [24] > 100 µM | [25] > 100 µM | [26] > 100 µM | [27] > 100 µM | [57] > 100 µM | [28] > 100 µM | [29] > 100 µM | [30] > 100 µM | [31] > 100 µM | [32] > 100 µM | [33] > 100 µM | [34] > 100 µM | [35] > 100 µM | [37] > 100 µM | [38] > 100 µM | [39] > 100 µM | [40] > 100 µM | [41] > 100 µM | [42] > 100 µM | [43] > 100 µM | [44] > 100 µM | [45] > 100 µM | [58] > 100 µM | [47] > 100 µM | [48] > 100 µM | [49] > 100 µM | [50] > 100 µM | [51] > 100 µM | [52] > 100 µM | [53] > 100 µM | [54] > 100 µM
> 100 µM: [19]
